The record followed here is PubChem BioAssay (NCI).

Some test systems named below: A549 NSCLC; COLO 205 colon; HCT-116 colon; HCT-15 colon; KM12 colon; LOX IMVI melanoma; M14 melanoma; MOLT-4 leukemia; NCI-H226 lung; OVCAR-8 ovarian; PC-3 prostate; RPMI-8226 leukemia; RXF 393 renal; SF-268 CNS; SF-295 CNS; SK-MEL-5 melanoma; SNB-75 CNS; UO-31 renal; UACC-62 melanoma; HS 578T breast.
Holding throughout (experiment): inhibition of tumour cell growth, NCI panel, 48 h

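Growth conditions: 96-well plates. Treatment: test compound, 48 hours, 5 concentrations. Analysis: linear interpolation between bracketing concentrations; unreached endpoints set to highest concentration. Definition used: TGI = concentration required for complete inhibition of growth.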 A value given as a limit tells only on which side of the number the result lay.

Regarding `CC(C)=C[C@H]1CCC2(OCCO2)[C@]1(C)COCc1ccccc1`, the TGI in the assay with A549 NSCLC is > 100 µM; in the assay with COLO 205 colon, 32.3 µM; in the assay with HCT-116 colon, > 100 µM; with HCT-15 colon, > 100 µM; in the assay on KM12 colon, > 100 µM; with LOX IMVI melanoma, 31 µM. In addition, the TGI in the assay on M14 melanoma was 99.4 µM; in the assay with MOLT-4 leukemia, 32.3 µM; with NCI-H226 lung it was 46.8 µM; in the assay with OVCAR-8 ovarian, > 100 µM; in the assay with PC-3 prostate, > 100 µM; in the assay on RPMI-8226 leukemia it was 41.9 µM. Moreover, the TGI in the assay on RXF 393 renal was 31.7 µM; in the assay with SF-268 CNS, > 100 µM; in the assay with SF-295 CNS it was > 100 µM; in the assay on SK-MEL-5 melanoma, 32 µM; in the assay on SNB-75 CNS, > 100 µM; in the assay with UO-31 renal, > 100 µM.

As for `CCN(CC)CCSc1c2cc(OC)ccc2nc2ccc(OC)cc12`, the TGI in the assay on A549 NSCLC was > 70.9 µM; with COLO 205 colon, 4.14 µM; in the assay with HCT-116 colon, 3.42 µM; in the assay with HCT-15 colon, > 100 µM; in the assay with KM12 colon it was > 71 µM; in the assay on M14 melanoma it was > 32.3 µM. The TGI with MOLT-4 leukemia was > 21.8 µM; in the assay with NCI-H226 lung it was 53.8 µM; in the assay with OVCAR-8 ovarian, 35.3 µM; in the assay with PC-3 prostate, 12.1 µM; in the assay on RPMI-8226 leukemia, 6.96 µM; in the assay with SF-268 CNS, 12.7 µM. In addition, the TGI was > 57.5 µM with SF-295 CNS, 27.7 µM in the assay on SK-MEL-5 melanoma, 31.8 µM with SNB-75 CNS and 33.5 µM in the assay with UACC-62 melanoma.

Regarding `O=C1C2C3C=C4c5ccccc5N(c5ccccc5)C4(C2C(=O)N1c1ccc([N+](=O)[O-])cc1)[C@H]1C(=O)N(c2ccc([N+](=O)[O-])cc2)C(=O)[C@@H]31` (some centres not stated), the TGI in the assay with A549 NSCLC, in the assay on COLO 205 colon, in the assay with HCT-116 colon, in the assay on HCT-15 colon, in the assay on KM12 colon and with LOX IMVI melanoma was > 100 µM each time. Further, the TGI in the assay with M14 melanoma, with MOLT-4 leukemia, in the assay on NCI-H226 lung, in the assay on OVCAR-8 ovarian, with RPMI-8226 leukemia and in the assay with RXF 393 renal was > 100 µM each time. For the same compound, the TGI with SF-268 CNS, in the assay with SF-295 CNS, in the assay with SK-MEL-5 melanoma, in the assay with SNB-75 CNS, in the assay with UACC-62 melanoma and in the assay with UO-31 renal was > 100 µM in each case.

Consider `CCO/C=N\C1=C(C#N)SC2=N/C(=C\c3ccc(OC)cc3)C(=O)N21`, for which the TGI with A549 NSCLC, in the assay with COLO 205 colon, with HCT-116 colon, in the assay on HCT-15 colon, in the assay with HS 578T breast and with KM12 colon was > 100 µM in each case. The TGI in the assay with LOX IMVI melanoma, in the assay on M14 melanoma, in the assay with MOLT-4 leukemia, in the assay on NCI-H226 lung, in the assay with OVCAR-8 ovarian and in the assay with RPMI-8226 leukemia was > 100 µM in each case. The TGI is > 100 µM in the assay with RXF 393 renal; > 100 µM in the assay with SF-268 CNS; > 100 µM in the assay with SF-295 CNS; > 100 µM in the assay with SK-MEL-5 melanoma; 46.6 µM with SNB-75 CNS; > 100 µM in the assay with UO-31 renal.

Take `Nc1nc(-[n+]2ccc(-c3ccncc3)cc2)nc(Cl)c1Cl`: the TGI is > 100 µM in the assay with A549 NSCLC; > 100 µM in the assay with COLO 205 colon; > 100 µM in the assay on HCT-116 colon; > 100 µM with HCT-15 colon; > 100 µM with KM12 colon; 33.2 µM in the assay with LOX IMVI melanoma. Moreover, the TGI was > 100 µM in the assay on M14 melanoma; 37.2 µM in the assay on MOLT-4 leukemia; > 100 µM with NCI-H226 lung; > 100 µM with PC-3 prostate; > 100 µM with RPMI-8226 leukemia; 32.8 µM with RXF 393 renal. Also, the TGI in the assay with SF-268 CNS was 34.6 µM; with SK-MEL-5 melanoma, > 100 µM; in the assay with UACC-62 melanoma, > 100 µM; in the assay on UO-31 renal, > 100 µM.

With `CCOc1ncn(-c2ccc(NC(=S)NC3OC(CO)C(O)C(O)C3O)cc2)n1` (configuration not stated), the TGI in the assay on A549 NSCLC, in the assay with COLO 205 colon, with HCT-116 colon, with HCT-15 colon, in the assay on KM12 colon and in the assay with LOX IMVI melanoma was > 100 µM in each case. Further, the TGI in the assay on M14 melanoma, in the assay on MOLT-4 leukemia, in the assay with OVCAR-8 ovarian, in the assay with PC-3 prostate, with RPMI-8226 leukemia and in the assay with SF-268 CNS was > 100 µM throughout. The TGI in the assay with SF-295 CNS, with SK-MEL-5 melanoma, with SNB-75 CNS, in the assay with UACC-62 melanoma and with UO-31 renal was > 100 µM throughout.

Turning to `CCOC(=O)c1ccc(NCc2ccc3oc(=O)c(-c4ccccc4)nc3c2)cc1`, the TGI is > 100 µM with A549 NSCLC; 62.6 µM in the assay on COLO 205 colon; 80.3 µM in the assay on HCT-116 colon; > 100 µM in the assay on HCT-15 colon; > 100 µM with KM12 colon; > 100 µM with LOX IMVI melanoma. Besides, the TGI in the assay with M14 melanoma was > 100 µM; with MOLT-4 leukemia it was 60.4 µM; in the assay on NCI-H226 lung, > 100 µM; with OVCAR-8 ovarian, 65 µM; in the assay with PC-3 prostate, > 100 µM; in the assay on RXF 393 renal it was 87.4 µM. In addition, the TGI was > 100 µM with SF-268 CNS; > 100 µM in the assay on SF-295 CNS; 45.2 µM with SK-MEL-5 melanoma; > 100 µM in the assay with SNB-75 CNS; > 100 µM in the assay on UACC-62 melanoma; > 100 µM with UO-31 renal.

For the compound `CCOC1=NC(O)c2cccn2-c2sccc21` (configuration not stated), the TGI in the assay on A549 NSCLC, in the assay on COLO 205 colon, in the assay with HCT-116 colon, in the assay with HCT-15 colon, in the assay with KM12 colon and in the assay on M14 melanoma was > 100 µM each time. Also, the TGI in the assay on MOLT-4 leukemia, in the assay on OVCAR-8 ovarian, in the assay on PC-3 prostate, in the assay on RPMI-8226 leukemia, in the assay with RXF 393 renal and in the assay on SF-268 CNS was > 100 µM each time. For the same compound, the TGI with SF-295 CNS, in the assay on SK-MEL-5 melanoma, in the assay with UACC-62 melanoma and in the assay with UO-31 renal was > 100 µM each time.
